Assay results reported in ChEMBL document CHEMBL3832037, “DailyMed|setid=7FCE939E-C38E-497F-BA3F-E7B6BA44BFD9 | SIMVASTATIN - simvastatin tablet, film coated|Contract Pharmacy Services-PA”.
“And” between values parts separate entries of the source, which are not always exact repeats. Identical values can stand only once.

How the values were obtained:
Homo sapiens [1] = experiment: Effect of co-administered drugs on the AUC and Cmax for Simvastatin, and its active metabolite Simvastatin acid. The geometric mean AUC and Cmax ratio (Ratio: with/without co-administered drug) for Simvastatin acid following single dose co-administration of Simvastatin with different drugs.; format: ADME, organism-based; conditions: in vivo, po, dosed compound id 2, dosed compound name SIMVASTATIN, regimen Single dose, tissue Plasma
Homo sapiens [2] = experiment: Effect of the co-administered drugs on the AUC and Cmax of simvastatin and simvastatin acid. The geometric mean AUC and Cmax ratio (Ratio: with/without co-administered drug) for simvastatin and simvastatin acid following multpile dose co-administration of simvastatin with different drugs.; format: ADME, organism-based; conditions: in vivo, po, dose 20 mg, dosed compound id 2, dosed compound name SIMVASTATIN, regimen Every 24h, tissue Plasma
[3] = dose 20 mg, interact cpd dose 2 g
[4] = dose 20 mg, interact cpd dose 237 mL, inter cpd dosed level low, inter cpd dos duration 3 days
[5] = dose 40 mg, interact cpd dose 600 mg, inter cpd dos duration 3 days
[6] = dose 60 mg, interact cpd dose 200 mL, inter cpd dosed level high, inter cpd dos duration 2 days
[7] = dose 80 mg, interact cpd dose 10 mg, inter cpd dos duration 10 days
[8] = dose 80 mg, interact cpd dose 120 mg, inter cpd dos duration 10 days
[9] = dose 80 mg, interact cpd dose 160 mg, inter cpd dos duration 14 days, study dosing duration 7 days
[10] = dose 80 mg, interact cpd dose 200 mg, inter cpd dos duration 4 days
[11] = dose 80 mg, interact cpd dose 240 mg, inter cpd dos duration 3 days

| Ratio AUC (Homo sapiens [1]; [3]) | Ratio Cmax (Homo sapiens [1]; [3]) | Ratio AUC (Homo sapiens [1]; [4]) | Ratio AUC (Homo sapiens [1]; [5]) | Ratio Cmax (Homo sapiens [1]; [5]) | Ratio AUC (Homo sapiens [1]; [6]) | Ratio AUC (Homo sapiens [1]; [7]) | Ratio Cmax (Homo sapiens [1]; [7]) | Ratio AUC (Homo sapiens [1]; [8]) | Ratio Cmax (Homo sapiens [1]; [8]) | Ratio AUC (Homo sapiens [1]; [9]) | Ratio Cmax (Homo sapiens [1]; [9]) | Ratio AUC (Homo sapiens [1]; [10]) | Ratio Cmax (Homo sapiens [1]; [10]) | Ratio Cmax (Homo sapiens [1]; [11]) | Ratio AUC (Homo sapiens [1]; dose 80 mg, interact cpd dose 240 mg, inter cpd dos duration 7 days) | Ratio Cmax (Homo sapiens [2]; interact cpd dose 200 mg, inter cpd dos duration 4 days) | Ratio AUC (Homo sapiens [2]; interact cpd dose 1250 mg, inter cpd dos duration 14 days, study dosing duration 28 days) | Ratio Cmax (Homo sapiens [1]; [6]) | Ratio AUC (Homo sapiens [1]; [11]) | SMILES |
| --- | --- | --- | --- | --- | --- | --- | --- | --- | --- | --- | --- | --- | --- | --- | --- | --- | --- | --- | --- | --- |
| 1.4 | 1.08 | 1.9 | 1.35 | 0.91 | 16 | 1.77 | 1.47 | 3.1 | 2.88 | 0.89 | 0.83 | 8.9 | 5.3 and 13.1 | 2.1 | 2.5 | 6.2 | 6 | – | – | CCC(C)(C)C(=O)O[C@H]1C[C@@H](C)C=C2C=C[C@H](C)[C@H](CC[C@@H]3C[C@@H](O)CC(=O)O3)[C@H]21 [SIMVASTATIN] |
| 1.6 | 1.84 | 1.3 | 2.85 | 2.18 | – | 1.58 | 1.56 | 2.69 | 2.69 | 0.64 | 0.89 | 12 | 15 and 13.1 | 2.4 | – | – | – | 7 | 2.3 | CCC(C)(C)C(=O)O[C@H]1C[C@@H](C)C=C2C=C[C@H](C)[C@H](CC[C@@H](O)C[C@@H](O)CC(=O)O)[C@H]21 [TENIVASTATIN] |
